# Numbered stars: 1 amine (or outer) side, 2 acyl side, 3 side chain; on linkers, the order of the positions; unused ones are H or OH. Bridge positions count the residues as written; N and C are the ends. Square brackets hold non-standard residues; d marks the D form. Peptide text beside a SMILES is read from it. * marks the point of attachment. hTyr(3S-OH,4S-OH,3'-OSO3H) = N[C@H](C(=O)O)[C@H](O)[C@@H](O)c1ccc(O)c(OS(=O)(=O)O)c1; pTerphenylCO(4''-OnC5H11) = CCCCCOc1ccc(-c2ccc(-c3ccc(C(=O)*)cc3)cc2)cc1; Orn(4R-OH,5R-OH) = O=C([C@H](C[C@@H](O)[C@@H](O)N[*:3])N[*:1])[*:2]; hTyr(3S-OH,4S-OH) = N[C@H](C(=O)O)[C@H](O)[C@@H](O)c1ccc(O)cc1; Pro(3S-OH,4S-Me) = C[C@H]1CN[C@H](C(=O)O)[C@H]1O; X1 = CCCCCOc1ccc(-c2cc(-c3ccc(C(=O)*)cc3)no2)cc1; Gln(3R-OH) = NC(=O)C[C@@H](O)[C@H](N)C(=O)O; Hyp = O=C(O)[C@@H]1C[C@@H](O)CN1
# Key:
# [1] = system: C. albicans and A. fumigatus cells; assay: Pretreatment with unlabeled antifungal drug followed by probe labeling; assay type: cell-based, Candida albicans, Aspergillus fumigatus; conditions: for effect of pretreatment on CSF-BOD labeling: pretreatment C. albicans 1 h, A. fumigatus 2 h, azoles at one dilution below the MIC, then CSF-BOD; for effect of pretreatment on labeling of cells by POS-BOD: pretreatment with unlabeled drug, then POS-BOD
# Description: To illustrate the potential of CSF-BOD and POS-BOD for visualizing fungal cells, the reagent was used to probe for the presence of Candida and Aspergillus species in a variety of matrices including solid and liquid growth media. The clinical A. fumigatus wild type strain R21 and Candida albicans ATCC strain 90028 were used for all the experiments. For Aspergillus, one drop of yeast extract peptone dextrose (YPD) agar was placed in the upper right corner of each well of a 15-well multitest slide followed by the addition of 10 μl of saline containing 105 conidia of R21. The slide was placed in a sterile petri dish with distilled water to provide a moist environment and incubated in a 37° C. incubator for 10-16 hours to facilitate germination and growth of hyphal elements. A 10 μl aliquot of CSF-BOD (170 ng/ml) or POS-BOD (150 ng/ml) was added to each well and incubated for 6 h at 37° C., followed by washing 3 times with sterile water and drying by vacuum. For Candida, an overnight culture of C. albicans was grown, washed by centrifugation and resuspended in dH2O. The yeast cells were added to RPMI and incubated at 200 rpm for 1 h at 37° C. to form germ tubes before being washed and resuspended in a 1 ml solution of CSF-BOD (120 ng/mil) or POS-BOD (150 ng/ml). The cells with drug were incubated again at 200 rpm for 1 h at 37° C., washed and resuspended in 50 ml of dH2O. A 15 well slide was prepared using a poly-L-lysine to tightly adhere cells to the wells. A 10 μL aliquot of Candida cells was placed on each well and incubated for 10 minutes, aspirated off, and 1 μL Slow Fade Antifade reagent was added to prolong the fluorescent life and moisture level of the cells on the each slide. Each slide was observed under 100× magnification with the total internal reflection objective lens (TIRF) of a Nikon Eclipse 90i fluorescent microscope. The 15 wells of the slides were examined individually using Volocity 3D Image Analysis Software (PerkinElmer). Individual cells, hyphal elements and clusters of cells were visualized, analyzed, and captured in bright field lighting and repeated under a Green Fluorescent Protein (GFP) light setting.
# [2] = system: C. albicans; assay: Antifungal activity (MIC) of labeled and unlabeled caspofungin; assay type: cell-based; conditions: Candida albicans
# Experimental: A derivative of CSF using BODIPY (BOD), an analog that resembles fluorescein but is smaller and more hydrophobic, was produced to test the CSF-BOD with various fungal pathogens. BODIPY-succinimidate was incubated with pure CSF in the presence of triethylamine as proton acceptor in DMF. The crude product was purified by TLC silica gel chromatography and characterized using mass spectroscopy, fluorescence and UV spectroscopy. The modified agent retained its specificity and sensitivity to the fungal target. […] BODIPY coupled to posaconazole (POS) was formed by modifying a single hydroxyl group of posaconazole with succinic anhydride (FIG. 6).
# [3] = system: A. fumigatus wild type strain R21; assay: Cell labeling with fluorescent probe, fluorescence microscopy; assay type: cell-based, Aspergillus fumigatus; conditions: control, species not given
# Description: To illustrate the potential of CSF-BOD and POS-BOD for visualizing fungal cells, the reagent was used to probe for the presence of Candida and Aspergillus species in a variety of matrices including solid and liquid growth media. The clinical A. fumigatus wild type strain R21 and Candida albicans ATCC strain 90028 were used for all the experiments. For Aspergillus, one drop of yeast extract peptone dextrose (YPD) agar was placed in the upper right corner of each well of a 15-well multitest slide followed by the addition of 10 μl of saline containing 105 conidia of R21. The slide was placed in a sterile petri dish with distilled water to provide a moist environment and incubated in a 37° C. incubator for 10-16 hours to facilitate germination and growth of hyphal elements. A 10 μl aliquot of CSF-BOD (170 ng/ml) or POS-BOD (150 ng/ml) was added to each well and incubated for 6 h at 37° C., followed by washing 3 times with sterile water and drying by vacuum. For Candida, an overnight culture of C. albicans was grown, washed by centrifugation and resuspended in dH2O. […] Individual cells, hyphal elements and clusters of cells were visualized, analyzed, and captured in bright field lighting and repeated under a Green Fluorescent Protein (GFP) light setting.
Compound,effect of pretreatment on CSF-BOD labeling [1],MIC [2] [µg/mL],labeling by unconjugated drug or dye alone [3],effect of pretreatment on labeling of cells by POS-BOD [1]
"CCCCCOc1ccc(-c2ccc(-c3ccc(C(=O)N[C@H]4C[C@@H](O)[C@@H](O)NC(=O)[C@@H]5[C@@H](O)[C@@H](C)CN5C(=O)[C@H]([C@@H](C)O)NC(=O)[C@H]([C@H](O)[C@@H](O)c5ccc(O)cc5)NC(=O)[C@@H]5C[C@@H](O)CN5C(=O)[C@H]([C@@H](C)O)NC4=O)cc3)cc2)cc1 [anidulafungin] ({pTerphenylCO(4''-OnC5H11)}-[Orn(4R-OH,5R-OH)]T[Hyp][hTyr(3S-OH,4S-OH)]T[Pro(3S-OH,4S-Me)]; lactam 1-C)",eliminated the labeling,–,–,–
CC[C@H](C)C[C@H](C)CCCCCCCCC(=O)N[C@H]1C[C@@H](O)[C@@H](NCCN)NC(=O)[C@@H]2[C@@H](O)CCN2C(=O)[C@H]([C@H](O)CCN)NC(=O)[C@H]([C@H](O)[C@@H](O)c2ccc(O)cc2)NC(=O)[C@@H]2C[C@@H](O)CN2C(=O)[C@H]([C@@H](C)O)NC1=O [caspofungin],intensified the fluorescence,0.06,failed to produce any labeling,little effect
OC(Cn1cncn1)(Cn1cncn1)c1ccc(F)cc1F [fluconazole],no effect,–,–,–
CCC(C)n1ncn(-c2ccc(N3CCN(c4ccc(OCC5COC(Cn6cncn6)(c6ccc(Cl)cc6Cl)O5)cc4)CC3)cc2)c1=O (stereo not shown) [itraconazole],no effect,–,–,–
"CCCCCOc1ccc(-c2cc(-c3ccc(C(=O)N[C@H]4C[C@@H](O)[C@@H](O)NC(=O)[C@@H]5[C@@H](O)[C@@H](C)CN5C(=O)[C@H]([C@H](O)CC(N)=O)NC(=O)[C@H]([C@H](O)[C@@H](O)c5ccc(O)c(OS(=O)(=O)O)c5)NC(=O)[C@@H]5C[C@@H](O)CN5C(=O)[C@H]([C@@H](C)O)NC4=O)cc3)no2)cc1 [micafungin] (X1-[Orn(4R-OH,5R-OH)]T[Hyp][hTyr(3S-OH,4S-OH,3'-OSO3H)][Gln(3R-OH)][Pro(3S-OH,4S-Me)]; lactam 1-C)",eliminated the labeling,–,–,–
CC[C@@H]([C@H](C)O)n1ncn(-c2ccc(N3CCN(c4ccc(OC[C@@H]5CO[C@@](Cn6cncn6)(c6ccc(F)cc6F)C5)cc4)CC3)cc2)c1=O [posaconazole],no effect,–,–,greatly diminished or eliminated the fluorescence signal
C[C@@H](c1ncncc1F)[C@](O)(Cn1cncn1)c1ccc(F)cc1F [voriconazole],no effect,–,–,greatly diminished or eliminated the fluorescence signal
boron-dipyrromethene [BODIPY],–,–,failed to produce any labeling,–
